From ChEMBL document CHEMBL3272317, “Application of SCAP to drug design. 1. Prediction of octanol-water partition coefficients using solvent-dependent conformational analyses” (J Med Chem, 1976)

Test: Octanol-water partition coefficient, log P of the compound

SMILES | logP
CCCc1ccccc1 | 3.68
CC(C)(C)CO | 1.36
Nc1ccccc1 [ANILINE] | 0.9
CCC(C)=O [BUTANONE] | 0.29
CCCCCl [BUTYL CHLORIDE] | 2.39
OC1CCCCC1 [CYCLOHEXANOL] | 1.23
CCC#N [PROPIONITRILE] | 0.16
